Experimental findings from US9249115B2, “N,N1 substituted piperazines having combined antiaggregant, anticoagulant and vasodilatory activity, and method for producing same” (Vertex Closed Joint Stock Company, priority 2011, dated 2016) are described below.

SMILES strings stand for the structures.

In experiment [1] the test system is Ristocetin-induced thrombocyte aggregation. As to the kind of experiment: Ristocetin-induced thrombocyte aggregation, donor human thrombocyte enriched plasm. The format is cell-based. The conditions noted are these: ristocetin inductor; for MA (60 c), %: amplitude at 60 s. In short, it runs like this: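 Citrated donor human platelet-rich plasma, normalized to 200-250×10^9/L platelets, preincubated with compound in Tris-HCl pH 7.4 for 5 min at 37 °C. Aggregation induced by ristocetin (reagent diluted to 12 mg/ml) and followed turbidimetrically with stirring at 37 °C. Maximum amplitude, as % transmittance versus platelet-poor plasma, read at 60 s.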

Experiment [2] has as its system thrombocyte depleted plasm coagulation. As to the kind of experiment: Activated partial thromboplastin time (APTT), anticoagulant properties. The format is biochemical, human. The conditions noted are these: for APTT: thrombocyte depleted plasm. As for the experimental part: The study of antiaggregant and anticoagulant properties of N,N′-substituted piperazines on the sample of donor human blood. The blood was collected by donor ulnar vein punction with dry sharp needle without syringe. The administration of drugs that influence on thrombocyte function was cancelled in 7÷10 days before the experiment.
In graduated plastic centrifuge tube 1 ml of 3.8% basic trisodium citrate solution with pH=7.4 was placed. The ulnar vein was punctuated, the freely effluent blood was collected up to 10 ml mark, the mixture was instantly stirred to prevent air bubbles appearance. The collected and stabilized blood was split in two 5 ml portions in two tubes.
To obtain thrombocyte enriched plasm the stabilized blood was spinned at 1000 rpm (150 g) for 8 min at room temperature. The repeated spinning of the blood at 3200 rpm (2300 g) for 20 min at 22° C. yielded thrombocyte depleted plasm.
To study anticoagulant properties of N,N′-substituted piperazines activated partial thromboplastin time (APTT) was measured. That is the ability of N,N′-substituted piperazines to increase thrombocyte depleted plasm coagulation time compared to the ability of control sample. The set of reagents for APTT determination (Russian Scientific Research Institute of Hematology and Transfusiology Ministry of Health of Russian Federation by Technical Regulation 9398-214-01966456-99) and COAG-A-MATE® XM coagulometer (ORGANON TEKNIKA, USA) were used.
The solutions of N,N′-substituted piperazines were mixed with thrombocyte depleted plasm at 1:1 ratio, then 0.1 ml of APTT reagent was added, the mixture was incubated in the cuvette for 5 min at 37° C., then 0.1 ml of 0.277% CaCl2 solution was added. The time of coagulation (in seconds) was measured.

In experiment [3] the test system is experimental photothrombosis. As to the kind of experiment: Experimental photothrombosis model, arterial blood velocity. The format is in vivo, Wistar male rats. The procedure: The studies were done on Wistar male rats with mass of 230±30 g (laboratory animals nursery “Rappolovo”, RAMS). The animals were kept with unlimited food (standard ration for laboratory rats K-120 by <<Inform-korm>>, Russia) and water allowance. […]
Thrombosis modeling: the drugs were introduced into left femoral vein, in 50 min afterwards 1 ml of Bengal rose A photosensitizer (Acros Organics, USA) solution was introduced with dose of 17 mg/kg [Boselli 2007, Petrischev 2009]. Then the incision of internal surface of animal right thigh about 2 cm in length was made. The section of the femoral vein about 5 mm in length was released from surrounding tissues and separated from neurovascular bundle. Beneath this section of the vein the black non-transparent plastic strip 3 mm in width was laid to screen off the vein and surrounding tissues from radiation. The irradiation was done using diode laser <<DPSS-laser>> (Diode Pumped Solid State Laser, South Korea) with 532 nm wavelength and 60 mW power. The area of irradiation was 1 mm^2, exposing time was 40 min. The blood flow in femoral artery was measured by high frequency Doppler ultrasonography method (<<Minimax-Doppler-K>> apparatus, frequency of sensor was 20 MHz). The blood velocity alteration due to irradiation was measured (Table 9).

`O=C(O)/C=C/c1ccc(Cn2ccnc2)cc1` [Ozagrel, reference compound]: the “(MAx-MA0): MA0 * 100% (Ozagrel: (MA0-MAx): MA0 * 100%)” value in experiment [1] (1.25 mmol/L) is reported as 8.0%; in experiment [1] (2.5 mmol/L), 28.4%; in experiment [1] (5.0 mmol/L) it was 44.1%. The “MA (60 c), %” value in experiment [1] (1.25 mmol/L) was 58.6 ± 9.1%; in experiment [1] (2.5 mmol/L) it was 45.6 ± 9.5%; in experiment [1] (5.0 mmol/L), 35.6 ± 8.5%. For the same molecule, the “(APTTx-APTT0): APTT0 * 100%” value turned out to be 7.2% in experiment [2] (2.5 mmol/L), 10.0% in experiment [2] (4.1 mmol/L), 19.9% in experiment [2] (8.3 mmol/L) and 29.8% in experiment [2] (12.5 mmol/L). Besides, the “APTT” value in experiment [2] (2.5 mmol/L) came out at 51.8 ± 1.7 s; in experiment [2] (4.1 mmol/L), 53.1 ± 3.0 s; in experiment [2] (8.3 mmol/L) it was 57.9 ± 2.5 s; in experiment [2] (12.5 mmol/L), 62.7 ± 2.1 s. Also, the “V, cm/s (arterial blood velocity)” value in experiment [3] (0.01 mmol/kg, 0 min of irradiation) is 10.9 ± 2.9 cm/s; in experiment [3] (0.01 mmol/kg, 10 min of irradiation), 5.7 ± 1.8 cm/s; in experiment [3] (0.01 mmol/kg, 20 min of irradiation) it was “Absence of blood flow”; in experiment [3] (0.01 mmol/kg, 30 min of irradiation), “Absence of blood flow”; in experiment [3] (0.01 mmol/kg, 40 min of irradiation) it was “Absence of blood flow”; in experiment [3] (0.025 mmol/kg, 0 min of irradiation), 9.0 ± 2.7 cm/s. For the same molecule, the “V, cm/s (arterial blood velocity)” value in experiment [3] (0.025 mmol/kg, 10 min of irradiation) is 5.1 ± 1.7 cm/s; in experiment [3] (0.025 mmol/kg, 20 min of irradiation), 3.8 ± 1.0 cm/s; in experiment [3] (0.025 mmol/kg, 30 min of irradiation), 5.5 ± 1.4 cm/s; in experiment [3] (0.025 mmol/kg, 40 min of irradiation) it was 5.8 ± 1.7 cm/s.
